This is an account of results in patent publication US11945806B2, “Stabilization of amyloidogenic immunoglobulin light chains” (The Scripps Research Institute, priority 2019, dated 2024).

Molecules are shown by their SMILES.

This experiment concerns the target WIL-FL (Homo sapiens, UniProt P01721). In words: Unlabeled LC Protease Sensitivity Assay (proteinase K). Format: biochemical. Conditions: small molecule 10 μM, WIL-FL 5 μM, proteinase K 50 nM, 2 hours at 37° C. The procedure, abridged:
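Compound at 10 μM (1% DMSO) is mixed with 5 μM WIL-FL and 50 nM proteinase K in PBS pH 7.4/0.02% Pluronic F-127, 37 °C, 2 h, then quenched with PMSF. Remaining protein measured by SEC-UPLC peak area at 280 nm and expressed as fold protection relative to vehicle and no-protease controls.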
For `CCN(CC)c1ccc2c(C)c(CCOC(=O)NCc3ccc(C(=O)O)cc3)c(=O)oc2c1` [Compound 119, 4-((((2-(7-(diethylamino)-4-methyl-2-oxo-2H-chromen-3-yl)ethoxy)carbonyl)amino)methyl)benzoic acid], the “Protection (fold protection of LC from protease)” value was “B (3 ≤ B < 0.6)”. As for `CCN(CC)c1ccc2c(C)c(CCOC(=O)NCc3cccc(C(=O)O)c3)c(=O)oc2c1` [Compound 123, 3-((((2-(7-(diethylamino)-4-methyl-2-oxo-2H-chromen-3-yl)ethoxy)carbonyl)amino)methyl)benzoic acid], the entry is “B (3 ≤ B < 0.6)”; as for `CCN(CC)c1ccc2c(C)c(CCOC(=O)NCc3ccc(NC(C)=O)cn3)c(=O)oc2c1` [Compound 127, 2-(7-(diethylamino)-4-methyl-2-oxo-2H-chromen-3-yl)ethyl ((5-acetamidopyridin-2-yl)methyl)carbamate], “B (3 ≤ B < 0.6)”; as for `CCN(CC)c1ccc2c(C)c(CCOC(=O)NCc3cncc(NC(C)=O)c3)c(=O)oc2c1` [Compound 128, 2-(7-(diethylamino)-4-methyl-2-oxo-2H-chromen-3-yl)ethyl ((5-acetamidopyridin-3-yl)methyl)carbamate], “B (3 ≤ B < 0.6)”. As for `CCN(CC)c1ccc2c(C)c(CN3C(=O)CNC3=O)c(=O)oc2c1` [Compound 129, 3-((7-(diethylamino)-4-methyl-2-oxo-2H-chromen-3-yl)methyl)imidazolidine-2,4-dione], the entry is “B (3 ≤ B < 0.6)”; as for `CCN(CC)c1ccc2c(C)c(CCN3C(=O)CNC3=O)c(=O)oc2c1` [Compound 130, 3-(2-(7-(diethylamino)-4-methyl-2-oxo-2H-chromen-3-yl)ethyl)imidazolidine-2,4-dione], “B (3 ≤ B < 0.6)”.

In the case of `CCN(CC)c1ccc2c(C)c(CCNC(=O)NC)c(=O)oc2c1` [Compound 131, 1-(2-(7-(diethylamino)-4-methyl-2-oxo-2H-chromen-3-yl)ethyl)-3-methylurea], the “Protection (fold protection of LC from protease)” value was “B (3 ≤ B < 0.6)”.

Regarding `CCN(CC)c1ccc2c(C)c(CCOC(=O)NCCNc3ccccn3)c(=O)oc2c1` [Compound 132, 2-(7-(diethylamino)-4-methyl-2-oxo-2H-chromen-3-yl)ethyl (2-(pyridin-2-ylamino)ethyl)carbamate], the “Protection (fold protection of LC from protease)” value is “C (C ≥ 0.6)”. As for `CCN(CC)c1ccc2c(C)c(CCOC(=O)NCCCN(C)C)c(=O)oc2c1` [Compound 133, 2-(7-(diethylamino)-4-methyl-2-oxo-2H-chromen-3-yl)ethyl (3-(dimethylamino)propyl)carbamate], the entry is “B (3 ≤ B < 0.6)”; as for `CCN(CC)c1ccc2c(C)c(CCOC(=O)NCc3cccc(CN(C)C)c3)c(=O)oc2c1` [Compound 135, 2-(7-(diethylamino)-4-methyl-2-oxo-2H-chromen-3-yl)ethyl (3-((dimethylamino)methyl)benzyl)carbamate], “C (C ≥ 0.6)”; as for `CCc1cc(=O)oc2cc(N(CC)CC)ccc12` [Compound 136, 7-(diethylamino)-4-ethyl-2H-chromen-2-one], “A (A < 0.3))”. As for `CCN(CC)c1ccc2c(C)c(CCOC(=O)NCc3ccc4[nH]ccc4c3)c(=O)oc2c1` [Compound 137, 2-(7-(diethylamino)-4-methyl-2-oxo-2H-chromen-3-yl)ethyl ((1H-indol-5-yl)methyl)carbamate], the entry is “B (3 ≤ B < 0.6)”. Turning to `CCN(CC)c1ccc2c(C)c(CCOC(=O)NCc3ccc(=O)[nH]c3)c(=O)oc2c1` [Compound 138, 2-(7-(diethylamino)-4-methyl-2-oxo-2H-chromen-3-yl)ethyl ((6-oxo-1,6-dihydropyridin-3-yl)methyl)carbamate], the “Protection (fold protection of LC from protease)” value was “A (A < 0.3))”.

Consider `CCN(CC)c1ccc2c(C)c(CCOC(=O)NCc3nccc4ccccc34)c(=O)oc2c1` [Compound 139, 2-(7-(diethylamino)-4-methyl-2-oxo-2H-chromen-3-yl)ethyl (isoquinolin-1-ylmethyl)carbamate], for which the “Protection (fold protection of LC from protease)” value is recorded as “A (A < 0.3))”.

On to `CCN(CC)c1ccc2c(C)c(CCOC(=O)NCc3cncc4ccccc34)c(=O)oc2c1` [Compound 140, 2-(7-(diethylamino)-4-methyl-2-oxo-2H-chromen-3-yl)ethyl (isoquinolin-4-ylmethyl)carbamate], for which the “Protection (fold protection of LC from protease)” value is “A (A < 0.3))”. As for `CCN(CC)c1ccc2c(C)c(CCOC(=O)NCc3cccc(-c4c[nH]cn4)c3)c(=O)oc2c1` [Compound 141, 2-(7-(diethylamino)-4-methyl-2-oxo-2H-chromen-3-yl)ethyl (3-(1H-imidazol-4-yl)benzyl)carbamate], the entry is “C (C ≥ 0.6)”; as for `CCN(CC)c1ccc2c(C)c(CCOC(=O)NCc3ccc4nc[nH]c4c3)c(=O)oc2c1` [Compound 142, 2-(7-(diethylamino)-4-methyl-2-oxo-2H-chromen-3-yl)ethyl ((1H-benzo[d]imidazol-6-yl)methyl)carbamate], “C (C ≥ 0.6)”; as for `CCN(CC)c1ccc2c(C)c(CCOC(=O)NCc3ccc4cc[nH]c(=O)c4c3)c(=O)oc2c1` [Compound 143, 2-(7-(diethylamino)-4-methyl-2-oxo-2H-chromen-3-yl)ethyl ((1-oxo-1,2-dihydroisoquinolin-7-yl)methyl)carbamate], “B (3 ≤ B < 0.6)”.

As to `CCN(CC)c1ccc2c(C)c(CCOC(=O)NCc3ccc(F)c(C(N)=O)c3)c(=O)oc2c1` [Compound 144, 2-(7-(diethylamino)-4-methyl-2-oxo-2H-chromen-3-yl)ethyl (3-carbamoyl-4-fluorobenzyl)carbamate], the “Protection (fold protection of LC from protease)” value was “C (C ≥ 0.6)”. As for `CCN(CC)c1ccc2c(C)c(CCOC(=O)NCc3cc(F)cc(C(N)=O)c3)c(=O)oc2c1` [Compound 145, 2-(7-(diethylamino)-4-methyl-2-oxo-2H-chromen-3-yl)ethyl (3-carbamoyl-5-fluorobenzyl)carbamate], the entry is “C (C ≥ 0.6)”; as for `CCN(CC)c1ccc2c(C)c(CCOC(=O)NCC3CCCNC3)c(=O)oc2c1` (centres unmarked) [Compound 146, 2-(7-(diethylamino)-4-methyl-2-oxo-2H-chromen-3-yl)ethyl (piperidin-3-ylmethyl)carbamate], “B (3 ≤ B < 0.6)”. Turning to `CCN(CC)c1ccc2c(C)c(CCOC(=O)NCC3CCNCC3)c(=O)oc2c1` [Compound 147, 2-(7-(diethylamino)-4-methyl-2-oxo-2H-chromen-3-yl)ethyl (piperidin-4-ylmethyl)carbamate], the “Protection (fold protection of LC from protease)” value is listed as “B (3 ≤ B < 0.6)”.

Take `CCN(CC)c1ccc2c(C)c(CCOC(=O)NCC3CCN(C)CC3)c(=O)oc2c1` [Compound 148, 2-(7-(diethylamino)-4-methyl-2-oxo-2H-chromen-3-yl)ethyl ((1-methylpiperidin-4-yl)methyl)carbamate]: the “Protection (fold protection of LC from protease)” value is listed as “B (3 ≤ B < 0.6)”. As for `CCN(CC)c1ccc2c(C)c(CCOC(=O)NCc3cccc(S(N)(=O)=O)c3)c(=O)oc2c1` [Compound 149, 2-(7-(diethylamino)-4-methyl-2-oxo-2H-chromen-3-yl)ethyl (3-sulfamoylbenzyl)carbamate], the entry is “C (C ≥ 0.6)”; as for `CCN(CC)c1ccc(NC(=O)CN2C(=O)CNC2=O)cc1` [Compound 150, N-(4-(diethylamino)phenyl)-2-(2,5-dioxoimidazolidin-1-yl)acetamide], “A (A < 0.3))”; as for `O=C(CN1C(=O)CNC1=O)Nc1ccc(C(F)(F)F)cc1` [Compound 151, 2-(2,5-dioxoimidazolidin-1-yl)-N-(4-(trifluoromethyl)phenyl)acetamide], “A (A < 0.3))”. As for `Cc1c(CN2CCOCC2)c(=O)oc2cc(OC(C)c3ccccc3)ccc12` (centres unmarked) [Compound 152, 4-methyl-3-(morpholinomethyl)-7-(1-phenylethoxy)-2H-chromen-2-one], the entry is “B (3 ≤ B < 0.6)”; as for `CCN(CC)c1ccc2c(C)c(CCOC(=O)NCc3cccc(-c4ncc[nH]4)c3)c(=O)oc2c1` [Compound 153, 2-(7-(diethylamino)-4-methyl-2-oxo-2H-chromen-3-yl)ethyl (3-(1H-imidazol-2-yl)benzyl)carbamate], “C (C ≥ 0.6)”. As for `CCN(CC)c1ccc2c(C)c(CCOC(=O)NCc3cccc(-c4ccccn4)c3)c(=O)oc2c1` [Compound 154, 2-(7-(diethylamino)-4-methyl-2-oxo-2H-chromen-3-yl)ethyl (3-(pyridin-2-yl)benzyl)carbamate], the entry is “C (C ≥ 0.6)”; as for `CCN(CC)c1ccc2c(C)c(CCOC(=O)NCc3cccc(-c4ncccn4)c3)c(=O)oc2c1` [Compound 155, 2-(7-(diethylamino)-4-methyl-2-oxo-2H-chromen-3-yl)ethyl (3-(pyrimidin-2-yl)benzyl)carbamate], “C (C ≥ 0.6)”; as for `CCN(CC)c1ccc2c(C)c(CCOC(=O)NCc3cccc(-c4cncnc4)c3)c(=O)oc2c1` [Compound 156, 2-(7-(diethylamino)-4-methyl-2-oxo-2H-chromen-3-yl)ethyl (3-(pyrimidin-5-yl)benzyl)carbamate], “B (3 ≤ B < 0.6)”. For `CCN(CC)c1ccc2c(C)c(CCOC(=O)NCc3cccc(-c4cnccn4)c3)c(=O)oc2c1` [Compound 157, 2-(7-(diethylamino)-4-methyl-2-oxo-2H-chromen-3-yl)ethyl (3-(pyrazin-2-yl)benzyl)carbamate], the “Protection (fold protection of LC from protease)” value is recorded as “C (C ≥ 0.6)”.
